Our source for the EC50 values is patent US20240228504A1, “SUBSTITUTED TRICYCLIC AMIDES, ANALOGUES THEREOF, AND METHODS USING SAME” (Arbutus Biopharma Corporation, priority 2020, published 2024).

By EC50 is commonly meant the midpoint of the concentration-response curve.

The first assay deals with HBV rcDNA in HepDE19 cells. The assay is described as follows: HepDE19 assay with bDNA quantitation of HBV rcDNA. Particulars: HepDE19 assay, inhibition of rcDNA formation, bDNA quantitation; read-out: DE-19bDNA EC50. The class given is cell-based, hepatitis B virus.
For `CN(C(=O)C1Cc2c(F)cc(F)cc2N1)C1COCc2[nH]c(=O)c3cc(F)c(F)cc3c21` (stereo not shown) [Compound 15, N-(8,9-Difluoro-6-oxo-1,4,5,6-tetrahydro-2H-pyrano[3,4-c]isoquinolin-1-yl)-4,6-difluoro-N-methylindoline-2-carboxamide], the EC50 worked out at 960 nM.
Turning to `CN(C(=O)C1Cc2c(F)cc(F)cc2N1)C1COCc2[nH]c(=O)c3cc(F)c(F)cc3c21` (stereo not shown) [Compound 16, N-(8,9-Difluoro-6-oxo-1,4,5,6-tetrahydro-2H-pyrano[3,4-c]isoquinolin-1-yl)-4,6-difluoro-N-methylindoline-2-carboxamide], the EC50 was 20 nM.
`CN(C(=O)C1Nc2ccccc2C1(C)C)C1COCc2[nH]c(=O)c3cc(F)c(F)cc3c21` (stereo not shown) [Compound 57, N-(8,9-Difluoro-6-oxo-1,4,5,6-tetrahydro-2H-pyrano[3,4-c]isoquinolin-1-yl)-N,3,3-trimethylindoline-2-carboxamide]: the concentration giving a half-maximal response (EC50) was found to be 23000 nM.
On the same count and under the same terms, the figure for `CN(C(=O)C1Nc2ccccc2C1(C)C)C1COCc2[nH]c(=O)c3cc(F)c(F)cc3c21` (stereo not shown) [Compound 59, N-(8,9-Difluoro-6-oxo-1,4,5,6-tetrahydro-2H-pyrano[3,4-c]isoquinolin-1-yl)-N,3,3-trimethylindoline-2-carboxamide] is 22000 nM.

Staying with this assay, now noted: Hepatitis B virus, HepDE19, HepDE19 assay, inhibition of rcDNA formation, bDNA quantitation; read-out: DE-19bDNA EC50.
In the case of `CN(C(=O)c1cc2cc(F)c(F)cc2[nH]1)[C@H]1COCc2[nH]c(=O)c3cc(F)c(F)cc3c21` [Compound 41, N-(8,9-difluoro-6-oxo-1,4,5,6-tetrahydro-2H-pyrano[3,4-c]isoquinolin-1-yl)-5,6-difluoro-N-methyl-1H-indole-2-carboxamide], the half-maximal effective concentration (EC50) worked out at 2200 nM.
Same read-out and setting: the figure for `CN(C(=O)c1cc2cc(F)c(F)cc2[nH]1)[C@@H]1COCc2[nH]c(=O)c3cc(F)c(F)cc3c21` [Compound 42, (S)-N-(8,9-difluoro-6-oxo-1,4,5,6-tetrahydro-2H-pyrano[3,4-c]isoquinolin-1-yl)-5,6-difluoro-N-methyl-1H-indole-2-carboxamide] is 5 nM.
On the same count and under the same terms, the figure for `CN(C(=O)c1cn2cc(Cl)ccc2n1)[C@@H]1COCc2[nH]c(=O)c3cc(F)c(F)cc3c21` [Compound 51, (S)-6-Chloro-N-(8,9-difluoro-6-oxo-1,4,5,6-tetrahydro-2H-pyrano[3,4-c]isoquinolin-1-yl)-N-methylimidazo[1,2-a]pyridine-2-carboxamide] is 1300 nM.
Same read-out and setting: the figure for `CN(C(=O)c1cn2cc(Cl)ccc2n1)[C@@H]1COCc2[nH]c(=O)c3cc(F)ccc3c21` [Compound 52, (S)-6-Chloro-N-(8-fluoro-6-oxo-1,4,5,6-tetrahydro-2H-pyrano[3,4-c]isoquinolin-1-yl)-N-methylimidazo[1,2-a]pyridine-2-carboxamide] is 4100 nM; for `CCN(C(=O)c1cn2cc(Cl)ccc2n1)[C@@H]1COCc2[nH]c(=O)c3cc(F)ccc3c21` [Compound 53, (S)-6-Chloro-N-ethyl-N-(8-fluoro-6-oxo-1,4,5,6-tetrahydro-2H-pyrano[3,4-c]isoquinolin-1-yl)imidazo[1,2-a]pyridine-2-carboxamide] it is 2500 nM.
Regarding `CN(C(=O)C1Nc2ccccc2C1(C)C)C1COCc2[nH]c(=O)c3cc(F)c(F)cc3c21` (stereo not shown) [Compound 56, N-(8,9-Difluoro-6-oxo-1,4,5,6-tetrahydro-2H-pyrano[3,4-c]isoquinolin-1-yl)-N,3,3-trimethylindoline-2-carboxamide], the EC50 came out at 18000 nM.
Still for that read-out and setting: the figure for `CN(C(=O)c1cc2ccccn2n1)[C@@H]1COCc2[nH]c(=O)c3cc(F)c(F)cc3c21` [Compound 64, (S)-N-(8,9-Difluoro-6-oxo-1,4,5,6-tetrahydro-2H-pyrano[3,4-c]isoquinolin-1-yl)-N-methylpyrazolo[1,5-a]pyridine-2-carboxamide] is 630 nM.
Consider `CN(C(=O)c1cc2cccnn2c1)[C@@H]1COCc2[nH]c(=O)c3cc(F)c(F)cc3c21` [Compound 65, (S)-N-(8,9-Difluoro-6-oxo-1,4,5,6-tetrahydro-2H-pyrano[3,4-c]isoquinolin-1-yl)-N-methylpyrrolo[1,2-b]pyridazine-6-carboxamide], for which the EC50 came out at 150 nM.
As for `CN(C(=O)c1ccc2cccnc2c1)[C@@H]1COCc2[nH]c(=O)c3cc(F)c(F)cc3c21` [Compound 66, (S)-N-(8,9-Difluoro-6-oxo-1,4,5,6-tetrahydro-2H-pyrano[3,4-c]isoquinolin-1-yl)-N-methylquinoline-7-carboxamide], the EC50 was 2300 nM.
As to `CN(C(=O)c1ccc2ncccc2c1)[C@@H]1COCc2[nH]c(=O)c3cc(F)c(F)cc3c21` [Compound 67, (S)-N-(8,9-Difluoro-6-oxo-1,4,5,6-tetrahydro-2H-pyrano[3,4-c]isoquinolin-1-yl)-N-methylquinoline-6-carboxamide], the EC50 came to 1600 nM.
The same measure, in the same setting: the same measure for `CN(C(=O)c1ccc2nncn2c1)[C@@H]1COCc2[nH]c(=O)c3cc(F)c(F)cc3c21` [Compound 70, (S)-N-(8,9-Difluoro-6-oxo-1,4,5,6-tetrahydro-2H-pyrano[3,4-c]isoquinolin-1-yl)-N-methyl-[1,2,4]triazolo[4,3-a]pyridine-6-carboxamide]: 22000 nM; for `CN(C(=O)c1cnc2ccccc2c1)[C@@H]1COCc2[nH]c(=O)c3cc(F)c(F)cc3c21` [Compound 71, (S)-N-(8,9-Difluoro-6-oxo-1,4,5,6-tetrahydro-2H-pyrano[3,4-c]isoquinolin-1-yl)-N-methylquinoline-3-carboxamide]: 330 nM.
`CN(C(=O)c1ccc2nccnc2c1)[C@@H]1COCc2[nH]c(=O)c3cc(F)c(F)cc3c21` [Compound 72, (S)-N-(8,9-Difluoro-6-oxo-1,4,5,6-tetrahydro-2H-pyrano[3,4-c]isoquinolin-1-yl)-N-methylquinoxaline-6-carboxamide]: the 50% effective concentration (EC50) is 3800 nM.
Regarding `CN(C(=O)c1ccc(C(F)(F)F)nc1)[C@@H]1COCc2[nH]c(=O)c3cc(F)c(F)cc3c21` [Compound 73, (S)-N-(8,9-Difluoro-6-oxo-1,4,5,6-tetrahydro-2H-pyrano[3,4-c]isoquinolin-1-yl)-N-methyl-6-(trifluoromethyl)nicotinamide], the EC50 worked out at 120 nM.
For `CN(C(=O)c1ccc(C(F)(F)F)c(F)c1)[C@@H]1COCc2[nH]c(=O)c3cc(F)c(F)cc3c21` [Compound 74, (S)-N-(8,9-Difluoro-6-oxo-1,4,5,6-tetrahydro-2H-pyrano[3,4-c]isoquinolin-1-yl)-3-fluoro-N-methyl-4-(trifluoromethyl)benzamide], the EC50 is 10 nM.
Still for that read-out and setting: the same measure for `CN(C(=O)c1ccc(Cl)c(F)c1)[C@@H]1COCc2[nH]c(=O)c3cc(F)c(F)cc3c21` [Compound 75, (S)-4-Chloro-N-(8,9-difluoro-6-oxo-1,4,5,6-tetrahydro-2H-pyrano[3,4-c]isoquinolin-1-yl)-3-fluoro-N-methylbenzamide]: 20 nM; for `CN(C(=O)c1cc(F)c(F)c(F)c1)[C@@H]1COCc2[nH]c(=O)c3cc(F)c(F)cc3c21` [Compound 76, (S)-N-(8,9-Difluoro-6-oxo-1,4,5,6-tetrahydro-2H-pyrano[3,4-c]isoquinolin-1-yl)-3,4,5-trifluoro-N-methylbenzamide]: 90 nM.
Still for that read-out and setting: the figure for `CN(C(=O)c1cncc(F)c1)[C@@H]1COCc2[nH]c(=O)c3cc(F)c(F)cc3c21` [Compound 83, (S)-N-(8,9-Difluoro-6-oxo-1,4,5,6-tetrahydro-2H-pyrano[3,4-c]isoquinolin-1-yl)-5-fluoro-N-methylnicotinamide] is 7000 nM.
